We go through three compounds from publication PMC12036875, “Mitochondria-targeting natural product rhein conjugated with dichloroacetate as the dual inhibitor of glycolysis and oxidative phosphorylation to off energize cancer cells and induce ROS storm” (Theranostics, 2025).

The test system of one experiment is HeLa cells. Briefly: MTT cytotoxicity assay. It is filed as cell-based. The conditions noted are these: Homo sapiens. As for the experimental part:
(§1) The cytotoxicity of Rhein-DCA conjugate was performed on various cancer cell lines, including breast cancer (4T1 and MCF-7), cervical cancer (HeLa), and colorectal carcinoma (CT26) via 3-(4,5)-dimethylthiahiazo(-z-y1)-3,5-di-phenytetrazoliumromide (MTT) assay. […] Moreover, the cytotoxicity of these compounds (rhein, DCA, R + D and Rhein-DCA) for normal cells (293T) was lower than that of those tested cancer cells.
(§2) Mouse breast cancer 4T1 cells and Mouse colorectal carcinoma CT26 cells were purchased from Haixing Biosciences Co., Ltd (Jiangsu, P. R. China), and cultured in complete RPMI-1640 medium supplemented with 10% FBS and 1% Penicillin / Streptomycin in a cell incubator (37 °C in 95% air and 5% CO2 atmosphere). Human breast cancer MCF-7 cells, Human cervical carcinoma HeLa cells and Human embryonic kidney 293T cells were obtained from the China Center for Type Culture Collection (CCTCC). MCF-7 and HeLa cells were cultured in DMEM medium containing 10% FBS and 1% Penicillin / Streptomycin and then cultured in a cell incubator (37 °C in 95% air and 5% CO2 atmosphere).
(§3) The cytotoxicity of rhein, DCA, the mixture of rhein and DCA (R + D) and Rhein-DCA conjugate was evaluated on HeLa, MCF-7, CT26, 4T1 and 293T cell lines by MTT assay. Cells were seeded in 96-well plates at a density of 3 × 10^3 cells per well in the corresponding complete culture medium and cultured for 24 h. Then cells were incubated with 200 μL fresh medium containing the respective desired concentrations of rhein, DCA, R + D (with the concentrations being 100, 66.7, 44.4, 29.6, 19.8, 13.2, 8.8, 5.9, 3.9, 2.6, 1.7 and 1.2 μM, respectively) and Rhein-DCA conjugate (with the concentrations being 29.6, 19.8, 13.2, 8.8, 5.9, 3.9, 2.6, 1.7, 1.2, 0.8, 0.5 and 0.3 μM, respectively). After 72 h of incubation, 20 μL of MTT solution (5 mg/mL) was added to each well and the plates were cultured for another 4 h. The medium was carefully removed, and 110 μL of DMSO was added into per well to dissolve the formazan. The absorption densities at 590 nm were recorded with microplate reader. The quoted IC50 values were presented as the mean ± standard deviation.

In the next experiment the test system is MCF-7 cells. Briefly: MTT cytotoxicity assay. The conditions noted are these: Homo sapiens, read-out: IC50 MCF-7. The experiment is classed as cell-based. The method, then:
as §1, §2, §3

Experiment [1] has as its system 4T1 cells. The experiment can be described thus: MTT cytotoxicity assay. It is filed as cell-based. Particulars: Mus musculus, read-out: IC50 4T1. The method, then:
as §1, §2, §3

The subject of a further experiment is CT26 cells. Briefly: MTT cytotoxicity assay. It is filed as cell-based. The conditions noted are these: Mus musculus, CT26, 72 h, read-out: IC50 CT26. As for the experimental part:
as §1, §2, §3
On the technique in general: Tetrazolium assays rely on reduction of a dye to a coloured formazan, in cell work by metabolically active cells.

For experiment [2], the system named is tumor-associated macrophages in 4T1 tumors. Briefly: Tumor-associated macrophages detection (flow cytometry). The conditions noted are these: primary 4T1 tumors; for M1 macrophages (CD80+ in CD11b+ cells) / M2 macrophages (CD206+ in CD11b+ cells): 20 mg/kg oral, 24 days; for M1 macrophages (CD80+ in CD11b+ cells): vehicle 5.8%; for M2 macrophages (CD206+ in CD11b+ cells): vehicle 36.5%. The experiment is classed as in vivo, Balb/c mice. As for the experimental part: To further investigate the immunomodulatory effects of the Rhein-DCA conjugate, we analyzed TAMs by flow cytometry, where CD11b and CD80 antibodies were labeled for M1-phenotype macrophages (Figure 7D), CD11b and CD206 antibodies were labeled for M2-phenotype macrophages (Figure 7E).
The macrophages within the tumor microenvironment of tumor tissues were further analyzed. Tumor tissues were minced into small pieces and then digested in a solution containing 1 mg/mL of collagenase IV, 0.1 mg/mL of hyaluronidase and 0.1 mg/mL of DNAase I at 37 °C for 1.5 h. The supernatants containing single cells were collected by filtering through 200 mesh filters. Cells were obtained by centrifugation and further blocked with anti-CD16/32 (1 μg/100 μL) for 10 min in an ice bath. Thereafter, FITC anti-mouse CD11b (1 μg/100 μL) and PE anti-mouse CD80 (1 μg/100 μL) antibodies were employed to stain the cells in an ice bath for 20 min. After that, the cells were collected and fixed with 4%-paraformaldehyde at room temperature for 20 min, and then stained with APC anti-mouse CD206 antibody (0.5 μg/100 μL, in 1 × Fix/Perm buffer) at room temperature in the dark for 20 min. Finally, cells were analyzed with flow cytometry after being resuspended in 1 × Perm/Wash buffer.
For orientation: In flow cytometry, cells or beads pass a laser one at a time.

Experiment [3] deals with 4T1 cells. Briefly: RNA sequencing and analysis (DEGs, GSEA). It is filed as cell-based, Mouse. The conditions noted are these: 6.25 μM, 12 h, RNA-seq. The method, then: To understand the effect of Rhein-DCA conjugate on the energy flow of glycolysis in cancer cells, we performed RNA sequencing analysis on 4T1 cell lines to analyze the genome. After various treatments for 12 h, all samples were clustered via principal component analysis (PCA) (Figure S12). […] Furthermore, the DEGs involved in glycolysis pathway of kyoto encyclopedia of genes and genomes (KEGG) databases were analyzed (Figure 2G). […] But as a pyruvate analogue, DCA led to the inactivation of PDK1 by binding to the pyruvate-binding pocket of PDK1 protein, together with down-regulation of PDK1 gene, thus leading more prominent restraint of glycolysis.
We next investigated whether the OXPHOS route would be further undermined by Rhein-DCA conjugate when the glycolysis was blocked. […] Thus, it was imperative to simultaneously halt glycolysis and OXPHOS to induce energy obstruction and apoptosis.
4T1 cells were seeded in 10 cm culture dishes and cultured until the confluency reached approximately 80%. The cells were treated with PBS, DCA, rhein, and Rhein-DCA conjugate (at a concentration of 6.25 μM) for 12 h. After that, the cells were collected and suspended in TRIzol Reagent for RNA sequencing. All samples were sent to Shanghai Majorbio Bio-pharm Biotechnology Co., Ltd. (Shanghai, P. R. China) for detection. Total RNA was extracted from 4T1 cells and was measured using the nanodrop-2000. The quality of RNA was evaluated by agarose gel electrophoresis and analyzed with Agilent5300. cDNA libraries were constructed according to the Illumina stranded mRNA prep, Ligation (USA) protocol. The DNA was further enriched by PCR amplification and purified by 2% Low Range Ultra Agarose. Clusters were generated by Bridge PCR on the cBot after being quantified by Qubit 4.0, and sequenced with NovaSeq X Plus platform (PE150). The differential expression analysis of various gene expressions was performed using DESeq2. The GO functional enrichment and KEGG pathway analysis were conducted on Goatools and Python scipy software.

Where [4] appears, read: 72 h treatment, MTT, mean ± S.D., n = 3, read-out: IC50 HeLa.
[5] abbreviates: MCF7, 72 h treatment, MTT, mean ± S.D., n = 3.
The mark [6] stands for this setting: 4T1, 72 h treatment, MTT, mean ± S.D., n = 3.
Where [7] appears, read: 72 h treatment, MTT, mean ± S.D., n = 3.

Structures are written as SMILES. Like-named read-outs stand apart in the source and are kept apart here.

As to `O=C(O)c1cc(O)c2c(c1)C(=O)c1cccc(O)c1C2=O` [Rhein, 4,5-dihydroxyanthraquinone-2-carboxylic acid], the IC50 in the experiment with HeLa cells (setting [4]) stood at 68.3 ± 5.1 µM; with MCF-7 cells (setting [5]) it was 79.9 ± 2.3 µM; in the experiment with 4T1 cells [1] (setting [6]) it was 41.2 ± 1 µM; in the experiment with CT26 cells (setting [7]) it was 42.1 ± 3.3 µM. For the same compound, the “M1 macrophages (CD80+ in CD11b+ cells)” value in experiment [2] came out at 6.0%. The “M2 macrophages (CD206+ in CD11b+ cells)” value in experiment [2] turned out to be 16.6%. Moreover, the PDK1 gene expression result in the experiment with 4T1 cells [3] is given as “down-regulation”.

Consider `O=C(OCCOC(=O)C(Cl)Cl)c1cc(O)c2c(c1)C(=O)c1cccc(O)c1C2=O` [Rhein-DCA], for which the IC50 with HeLa cells (setting [4]) was determined as 6.7 µM. Also, the IC50 in the experiment on MCF-7 cells (setting [5]) is 3.9 µM. In addition, in the experiment with 4T1 cells [1] (setting [6]), the 50% inhibitory concentration (IC50) is 1.7 µM. Moreover, the IC50 in the experiment on CT26 cells (setting [7]) is 2.7 ± 0.1 µM. For the same compound, in experiment [2], the “M1 macrophages increase vs vehicle” value amounted to 1.8 fold, the “M2 macrophages reduction vs vehicle” value is 9.4 fold, the “M1 macrophages (CD80+ in CD11b+ cells)” value turned out to be 10.3% and the “M2 macrophages (CD206+ in CD11b+ cells)” value is given as 3.9%. For the same compound, the PDK1 gene expression result with 4T1 cells [3] is on record as “significant down-regulation”.

With `O=C(O)C(Cl)Cl` [DCA, Dichloroacetate], the IC50 was greater than 100 µM with HeLa cells (72 h, read-out: IC50 HeLa); greater than 100 µM with MCF-7 cells (MCF7, 72 h); greater than 100 µM in the experiment with 4T1 cells [1] (4T1, 72 h); greater than 100 µM with CT26 cells. Also, in experiment [2], the “M1 macrophages (CD80+ in CD11b+ cells)” value is given as 7.7%. In addition, the “M2 macrophages (CD206+ in CD11b+ cells)” value in experiment [2] is recorded as 13.6%. Besides, the PDK1 gene expression entry in the experiment on 4T1 cells [3] is listed as “down-regulated”.

For orientation: IC50 means the concentration needed to halve the response being measured.
